These results are taken from patent US12145917B2, “Crystalline forms of a compound for treating or preventing gout or hyperuricemia” (Arthrosi Therapeutics, Inc., priority 2019, dated 2024).

The target of series [1] is T1, human URAT1 uptake transporter (Homo sapiens, UniProt Q96S37).
T1 construct: expressed in transfected cells
T1 sequence (Q96S37 1-553): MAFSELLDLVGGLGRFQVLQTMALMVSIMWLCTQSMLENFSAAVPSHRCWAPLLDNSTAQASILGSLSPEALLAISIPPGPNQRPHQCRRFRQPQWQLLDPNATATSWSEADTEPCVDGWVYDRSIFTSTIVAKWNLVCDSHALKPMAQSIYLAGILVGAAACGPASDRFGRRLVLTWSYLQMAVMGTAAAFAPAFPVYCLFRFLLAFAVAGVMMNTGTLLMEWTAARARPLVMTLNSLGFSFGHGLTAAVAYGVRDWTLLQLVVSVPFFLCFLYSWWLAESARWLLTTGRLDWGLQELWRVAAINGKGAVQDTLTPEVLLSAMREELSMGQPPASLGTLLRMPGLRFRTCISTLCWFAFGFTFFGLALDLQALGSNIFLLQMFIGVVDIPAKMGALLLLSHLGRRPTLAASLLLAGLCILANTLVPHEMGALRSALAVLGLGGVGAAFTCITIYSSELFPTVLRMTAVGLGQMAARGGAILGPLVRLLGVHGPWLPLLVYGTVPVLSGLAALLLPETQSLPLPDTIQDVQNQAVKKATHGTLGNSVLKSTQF
The series can be described thus: In vitro interaction study with the human URAT1 uptake transporter (uric acid uptake in MDCKII cells). The format is cell-based. The conditions noted are these: MDCK-II, at a concentration of 10 μM, read-out: Inhibition of URAT1 mediated uric acid accumulation. The protocol: Uptake experiments were performed using MDCKII cells stably expressing the human URAT1 uptake transporter. Cells were cultured at 37±1° C. in an atmosphere of 95:5 air:CO2 and were plated onto standard 96-well tissue culture plates at the cell number described in Table 5.
Radiolabeled probe substrate transport was determined by measuring an aliquot (35 μL) from each well for liquid scintillation counting.

The conditions of series [2]: cited from earlier work.
Series [3] is described as follows: Stability in human microsomes. The format is in vitro ADME.
In the next series the target is CYP2C9 (Homo sapiens, UniProt P11712). The series can be described thus: CYP2C9 metabolic pathway / metabolite formation. The class given is in vitro ADME.
Series [4] in a line: Dynamic vapor sorption (DVS). The class given is physicochemical. The following applies: for Post-GVS analysis by XRPD (change of form): after DVS cycle 0-90-0% RH; for Moisture uptake (DVS): between 0-90% RH. As to the method: DVS studies were performed using a DVS Intrinsic (SMS, UK) or IGASORP (Hiden, UK). 10 to 50 mg of compound was transferred into the DVS and the weight change recorded with respect to a varying atmospheric humidity at 25° C. using the following parameters:
Drying at 40° C. until dm/dt<±0.002%/min
Min time: 30 min, Max time: 120 min (for IGASORP)
Characterize the sample after the DVS experiment by XRPD

Where only a bound is given, the exact number is not on record here.

Chain of CYP2C9 (P11712 whole entry): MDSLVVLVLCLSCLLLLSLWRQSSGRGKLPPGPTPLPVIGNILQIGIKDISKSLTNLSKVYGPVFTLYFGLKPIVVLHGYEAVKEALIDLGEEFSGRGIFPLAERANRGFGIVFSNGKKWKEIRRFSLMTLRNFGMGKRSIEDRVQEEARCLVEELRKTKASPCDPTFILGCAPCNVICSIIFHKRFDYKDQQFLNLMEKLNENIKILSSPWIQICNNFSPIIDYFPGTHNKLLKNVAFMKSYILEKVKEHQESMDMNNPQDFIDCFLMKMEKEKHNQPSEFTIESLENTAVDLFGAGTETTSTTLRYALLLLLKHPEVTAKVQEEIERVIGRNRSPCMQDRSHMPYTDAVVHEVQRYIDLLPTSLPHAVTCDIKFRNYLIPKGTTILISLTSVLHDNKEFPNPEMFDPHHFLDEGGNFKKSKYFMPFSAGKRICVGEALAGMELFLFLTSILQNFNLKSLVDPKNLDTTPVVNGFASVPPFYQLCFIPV

Regarding `CCc1oc2ccccc2c1C(=O)c1cc(Br)c(O)c(Br)c1` [Benzbromarone], the inhibition (usually the share of the control response that was lost under treatment) at 10 µM in series [1] was found to be 98%. Moreover, in series [2] (chronic therapy), the “Serum uric acid (sUA) level reached” value was below 6 mg/dL. The Hepatotoxicity entry in series [2] (in certain patients) is given as “associated with hepatotoxicity”.

Take `[2H]c1c([2H])c([2H])c2c(C(=O)c3cc(Br)c(O)c(Br)c3)c(C(C)O)oc2c1[2H]` (centres unmarked) [Compound 1, (3,5-dibromo-4-hydroxyphenyl)(2-(1-hydroxyethyl)benzofuran-3-yl-4,5,6,7-d4)methanone]: the inhibition at 10 µM in series [1] stood at 100%. For the same compound, the “Stability in human microsomes compared with benzbromarone” value in series [3] is “more stable than benzbromarone in human microsomes”. For the same compound, at CYP2C9, the “Formation of 6-OH benzbromarone and 5,6-di-OH benzbromarone metabolites” value is “not formed”. Besides, the CYP2C9 metabolic pathway entry at CYP2C9 (compared with benzbromarone) is “significantly reduced”.

As for `[2H]c1c([2H])c([2H])c2c(C(=O)c3cc(Br)c(O)c(Br)c3)c(C(C)O)oc2c1[2H]` (centres unmarked) [Form 2, (3,5-dibromo-4-hydroxyphenyl)(2-(1-hydroxyethyl)benzofuran-3-yl-4,5,6,7-d4)methanone], the Hygroscopicity entry in series [4] (DVS, 25° C.) is given as “non-hygroscopic”. In addition, in series [4], the “Post-GVS analysis by XRPD (change of form)” value is reported as “no change”. For the same compound, the “Moisture uptake (DVS)” value in series [4] (25° C.) is given as 0.08%.

With `[2H]c1c([2H])c([2H])c2c(C(=O)c3cc(Br)c(O)c(Br)c3)c(C(C)O)oc2c1[2H]` (centres unmarked) [Form 1, (3,5-dibromo-4-hydroxyphenyl)(2-(1-hydroxyethyl)benzofuran-3-yl-4,5,6,7-d4)methanone], the “RH at which the dehydrated form converted to hydrated form” value in series [4] (DVS, 25° C.) is recorded as at least 20%.

Turning to `[2H]c1c([2H])c([2H])c2c(C(=O)c3cc(Br)c(O)c(Br)c3)c(C(C)O)oc2c1[2H]` (centres unmarked) [Form 3, (3,5-dibromo-4-hydroxyphenyl)(2-(1-hydroxyethyl)benzofuran-3-yl-4,5,6,7-d4)methanone], in series [4] (DVS, 25° C.), the Hygroscopicity result is listed as “non-hygroscopic”. In series [4], the “Post-GVS analysis by XRPD (change of form)” value is on record as “no change”. The “Moisture uptake (DVS)” value in series [4] (25° C.) is recorded as 0.04%.
